Assay results as given in patent US10143638B2, “Method of treating skin with ingenol mebutate” (LEO Laboratories Limited, priority 2009, dated 2018).

Tested on: HAS2
Assay: HAS2 gene expression by dermal fibroblasts (qPCR)
Assay type: cell-based, human
Details: non-significant (p>0.05)
Text: A normal adult skin biopsy (6 mm) was obtained (n=1), with informed consent, from an individual attending the Oral Surgery Clinic, School of Dentistry, Wales College of Medicine, Cardiff. Following the application of a local anaesthetic, the dermal biopsy was collected and adult dermal fibroblast cultures established by single cell suspension technique, following enzymic degradation of the specimen. This technique has previously been reliably used to establish viable primary cultures of both oral and dermal fibroblasts in vitro (Cook et al, 2000; Stephens et al, 2001; 2003). Dermal fibroblasts were cultured in Fibroblast-Serum Containing Medium, containing Dulbecco's Modified Eagle's Medium (DMEM), supplemented with L-glutamine (2 mM), antibiotics (100 U/ml) penicillin G sodium, […] streptomycin sulphate and 0.25 μg/ml amphotericin B) and 10% foetal calf serum (all purchased from Invitrogen Ltd., Paisley, U.K.). Dermal fibroblast cultures were maintained at 37° C., in a 5% CO2/95% air atmosphere, with the culture medium being changed every 2-3 days. Dermal fibroblasts were used between) passage 7-17, for all experiments.
Following trypsinization, dermal fibroblasts were seeded in 24-well tissue culture plates, in PEP005-free, Fibroblast-Serum Containing Medium (1 ml), at a cell density of 2.5×10^4 cell/well. Dermal fibroblasts were maintained at 37° C., in a 5% CO2/95% air atmosphere, overnight. At this stage, the culture medium was replaced with Fibroblast-Serum Containing Medium (600 μl), containing 0 μg/ml, 0.01 μg/ml, 0.1 μg/ml, 1 μg/ml, 10 μg/ml or 100 μg/ml PEP005, +/−TGF-β1 (10 ng/ml) (three culture wells per PEP005 concentration). A control was also established, consisting of cells in Fibroblast-Serum Containing Medium, containing 1% DMSO. The dermal fibroblasts were maintained at 37° C., in a 5% CO2/95% air atmosphere, for 24 h or 72 h, prior to washing in PBS (3×1 ml) and Trizol® Reagent (250 μl) added to the cells, for 5 min at room temperature, to induce cell lysis. RNA was extracted by the phenol-chloroform method, as described above, while a cDNA library was generated via random hexamer RT, as described above. RNA (1 μg) was added to 100 µM random hexamer (1 μl), 5×RT Buffer (4 μl), 2.5 mM Deoxynucleoside Triphosphates (dNTPs, 5 μl), 2 μl DTT and Nuclease-Free Water, were added to the reaction (total volume, 20 μl). To denature the RNA, reaction tubes were placed in a GeneAmp PCR System 9700 (Applied Biosystems, Cheshire, U.K.) and heated for 5 min/95° C., prior to cooling to 4° C. Superscript (1 μl) and RNAsin® Ribonuclease Inhibitor (1 μl, Promega, Hampshire, U.K.) were added to each tube, and the tubes subjected to […] at 20° C. for 10 min, 42° C. for 1 h and 95° C. for 5 min, prior to storage at 4° C., until required. As a negative control, RT was also performed, with Nuclease-Free Water replacing the RNA sample.
qPCR was performed, as described above, with the probe and primers for HAS1, HAS2 and HAS3 (target genes) and the 18s ribosomal RNA (reference gene), designed and supplied by Applied Biosystems. PCR was performed in a final volume of 20 μl/sample, with each reaction mix consisting of cDNA (1 μl), target gene primers and probe (1 μl), Taqman® FAST Universal PCR Master Mix (10 μl, Applied Biosystems), and Nuclease-Free Water (8 μl). PCR amplification was performed, using an initial cycle of 95° C. for 1 s, followed by 40 cycles of 60° C. for 20 s. A cDNA-free control was also included. Again, the comparative CT method was used for relative quantification of gene expression. Each experiment was performed on three separate occasions.

C/C=C(/C)C(=O)O[C@H]1C(C)=C[C@]23C(=O)[C@@H](C=C(CO)[C@@H](O)[C@]12O)[C@H]1[C@@H](C[C@H]3C)C1(C)C [PEP005, ingenol-3-angelate] was tested, and the HAS2 gene expression (PEP005 0.01-100 μg/ml plus TGF-β1 (10 ng/ml), 72 h) was “general down-regulation”, the HAS2 expression (PEP005 0.1-10 μg/ml plus TGF-β1 (10 ng/ml), 24 h) was “up-regulation” and the HAS2 expression (PEP005 0.1-10 μg/ml, absence of TGF-β1, 24 h) was “stimulatory effect”. For the same compound, the HAS2 gene expression (PEP005 0.1-10 μg/ml, absence of TGF-β1, 72 h) was “major up-regulation”.
